# Measured values as given in patent publication US11046680B1, “Heteroaryl-substituted triazoles as APJ receptor agonists” (priority 2016, dated 2021).
# What was measured:
# [1] = cited from earlier work
# [2] = system: heart failure rat model (MI Rat Model); test: In vivo cardiac contractility in heart failure (MI) rat model; set-up: species or system Lewis rat; conditions: heart failure rats in vivo, acute settings
# Description: Evidence for Improvement in Cardiac Contractility In Vivo in Heart Failure Rat Model
# Based on the ex vivo findings in isolated heart assay, APJ agonists were dosed in vivo to investigate the translation of cardiac contractility in in vivo settings. Male Lewis rats (Charles River, USA) at 2-3 months of age were used for the study. Heart failure was induced by permanent ligation of the left descending coronary artery which results in injury to the heart with an ejection fraction of <35%. APJ agonists were administered dose dependently acutely for a period of 30 min. Administration of example compounds lead to an increase in cardiac contractility as measured by dP/dtmax (derivative of left ventricular pressure) (Table 41).
# human APJ receptor = human APJ receptor (Homo sapiens (Human), UniProt P35414); test: biochemical; format: biochemical; conditions: [35S]GTPγS binding, CHO membranes expressing human APJ receptor; read-out: Activity hAPJ SPA EC50 IP
# Summary of the method: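 GTPγS binding on membranes from CHO cells stably expressing FLAG-tagged human APJ, with optimized GDP, MgCl2 and NaCl; incubated 90 min at RT before imaging read-out.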
# human APJ receptor, sequence (P35414 whole entry): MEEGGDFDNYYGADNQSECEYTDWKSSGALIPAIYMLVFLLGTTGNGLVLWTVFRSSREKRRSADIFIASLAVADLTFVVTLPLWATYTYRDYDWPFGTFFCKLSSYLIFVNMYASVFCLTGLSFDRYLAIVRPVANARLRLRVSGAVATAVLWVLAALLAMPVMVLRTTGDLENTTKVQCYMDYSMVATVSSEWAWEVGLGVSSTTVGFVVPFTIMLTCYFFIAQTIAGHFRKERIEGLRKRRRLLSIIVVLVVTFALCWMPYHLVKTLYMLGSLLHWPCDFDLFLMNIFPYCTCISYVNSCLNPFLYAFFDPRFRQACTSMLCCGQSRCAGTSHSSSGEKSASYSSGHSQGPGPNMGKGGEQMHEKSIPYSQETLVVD
molecule,measurement,setting,value
"Apelin-13 (QRPRLSHKGPMPF; Apelin-13; UniProt Q9ULZ1 65-77, looked up)",plasma half-life,[1],< 5 min
C[C@H](CS)C(=O)N1CCC[C@H]1C(=O)O [Captopril],improvement in contractility or ejection fraction,[2],does not show a marked improvement in contractility or ejection fraction
"COCC1(n2c(NS(=O)(=O)[C@@H](C)[C@H](OC)c3ncc(Cl)cn3)nnc2-c2noc3ccccc23)CC1 [Example 505.0, (1R,2S)-N-(5-(1,2-benzoxazol-3-yl)-4-(1-(methoxymethyl)cyclopropyl)-4H-1,2,4-triazol-3-yl)-1-(5-chloro-2-pyrimidinyl)-1-methoxy-2-propanesulfonamide]",EC50,human APJ receptor,8.5 nM
